Measurements from patent US7303889B2, “Ligand for G-protein coupled receptor GPR43 and uses thereof” (Euroscreen S.A., priority 2002, dated 2007).
Read-outs that look alike come from different tables or passages of the source.

Tests used:
human GPR43 [1] = molecular target: T1, human GPR43 (Homo sapiens, UniProt O15552); test: Structure-activity relationships of SCFAs and related compounds on human GPR43 (FIG. 12); parameters: expressed in transfected cells; details: compared with corresponding non-substituted active compounds
T1 sequence (O15552 1-330): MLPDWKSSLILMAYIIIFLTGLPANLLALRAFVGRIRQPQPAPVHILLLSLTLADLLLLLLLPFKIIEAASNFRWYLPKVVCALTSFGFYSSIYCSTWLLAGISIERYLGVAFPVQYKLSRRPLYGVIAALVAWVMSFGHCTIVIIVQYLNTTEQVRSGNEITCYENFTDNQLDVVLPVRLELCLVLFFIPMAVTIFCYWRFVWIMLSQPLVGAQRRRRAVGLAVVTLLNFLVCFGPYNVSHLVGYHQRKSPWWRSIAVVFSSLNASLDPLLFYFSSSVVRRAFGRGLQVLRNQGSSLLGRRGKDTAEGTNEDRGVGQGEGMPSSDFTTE

human GPR43 [2] = molecular target: T1, human GPR43; test: Accumulation of GTPγ[35S] binding on membranes from CHO-K1 cells expressing human GPR43; format: biochemical; parameters: expressed in transfected cells; details: for activity on GTPγ[35S] binding / order of agonist potency: single concentration of each compound, FIG. 8
Procedure: For GPCRs such as GPR43, a measure of receptor activity is the binding of GTP by cell membranes containing receptors. In the method described by Traynor and Nahorski, 1995, Mol. Pharmacol. 47: 848-854, incorporated herein by reference, one essentially measures G-protein coupling to membranes by detecting the binding of labelled GTP. For GTP binding assays, membranes isolated from cells expressing the receptor are incubated in a buffer containing 20 mM HEPES, pH 7.4, 100 mM NaCl, and 10 mM MgCl2, 80 pM ^35S-GTPγS and 3 μM GDP. The assay mixture is incubated for 60 minutes at 30° C., after which unbound labelled GTP is removed by filtration onto GF/B filters. Bound, labelled GTP is measured by liquid scintillation counting. In order to assay for modulation of propionate-induced GPR43 activity, membranes prepared from cells expressing a GPR43 polypeptide are mixed with propionate, and the GTP binding assay is performed in the presence and absence of a candidate modulator of GPR43 activity. […] In this case, propionate-stimulated GTP binding is used as a standard. […] GTPase activity is measured by incubating the membranes containing a GPR43 polypeptide with γ^32P-GTP. Active GTPase will release the label as inorganic phosphate, which is detected by separation of free inorganic phosphate in a 5% suspension of activated charcoal in 20 mM H3PO4, followed by scintillation counting. Controls include assays using membranes isolated from cells not expressing GPR43 (mock-transfected), in order to exclude possible non-specific effects of the candidate compound.
The activity of acetate was examined in a membrane-based functional test.
The activity of other SCFA and related compounds (alcohols, aldehydes, cetone, di-acids . . . ) was evaluated using a single concentration of each in the membrane-cell based assay.

human GPR43 [3] = molecular target: T1, human GPR43; test: Inhibition of forskolin-stimulated adenylate cyclase activity in CHO-K1 cells stably expressing human GPR43; format: cell-based; parameters: expressed in transfected cells
Procedure: (§1) Additional related compounds were tested using the same cells.
SCFA, ranging from 1 carbon to 4 carbon, were tested on CHO-K1 cells stably expressing the human GPR43 for their ability to inhibit the activity of adenylate cyclase stimulated with forskolin.

human GPR43 [4] = molecular target: T1, human GPR43; test: Production of inositol phosphates in CHO-K1 cells stably expressing human GPR43; format: cell-based; parameters: expressed in transfected cells; details: PTX-pretreatment prior to stimulation; FIG. 10
[5] = system: non related human G-protein coupled receptors; test: GTPγ[35S] binding on ten membrane preparations of CHO-K1 cells expressing non related human GPCRs; format: biochemical
[6] = system: peripheral blood neutrophils; test: Chemotactic response of neutrophilic granulocytes (48-well chamber); format: cell-based, human; details: for shape of chemotactic dose-response: FIG. 17
Procedure: Peripheral blood mononuclear cells were purified from buffy coats of healthy volunteers as previously described (Struyf S, De Meester I, Scharpe S, Lenaerts J P, Menten P, Wang J M, Proost P, Van Damme J., Eur J Immunol Apr. 28, 1998; 28 (4):1262-71). For intracellular calcium measurements, the cells were loaded for 30 min at room temperature with Fura-2AM (Molecular Probes). Calcium transients were monitored by a LS50B spectrofluorimeter (Perkin Elmer) as described (Grynkiewicz G, Poenie M, Tsien R Y., J Biol Chem Mar. 25, 1985;260(6):3440-50) at a final cell concentration of 10^6 cells/ml in buffer containing 125 μM probenecid. Chemotaxis was assessed in 48-well chambers using polycarbonate filter membranes with 3 μm (mesh size) (Neuroprobes, Inc.). The results are represented as chemotactic index (FIG. 17).
Freshly isolated peripheral blood neutrophils from healthy donors were tested for their chemotactic response to sodium acetate and propionate.

[7] = system: human polymorphonuclear (PMN) leukocytes; test: Mobilization of intracellular calcium in human neutrophils (Fura-2); format: cell-based; details: for EC50: FIG. 15 and 16, read-out: EC50 for increase of intracellular calcium
Procedure: The following experiments were conducted to test whether the human polymorphonuclear (PMN) leukocytes could be activated with acetate and propionate, since the receptor is strongly expressed in peripheral blood cells containing mainly PMNs. Activation was determined by the quantification of the intracellular calcium mobilized from internal pool after activation by acetate and propionate of the cell membrane receptor. PMN were purified from the venous blood of healthy volunteers. Cells were isolated according to established methods. For intracellular calcium measurements, the cells were loaded for 30 min at room temperature with Fura-2AM (Molecular Probes). […] Briefly, neutrophils suspensions (1×10^7 cells/ml) were incubated with 2 μM Fura-2/AM for 30 minutes at 37° C. The cells were then washed free of the extracellular probe, resuspended at 5×10^6 cells/ml and allowed to reequilibrate for 10 minutes at 37° C. Cells were then transferred to the thermostatted cuvette compartment (37° C.) of the fluorometer and the fluorescence monitored (excitation and emission […], 340 and 510 nm respectively).

[8] = system: human polymorphonuclear (PMN) leukocytes; details: Naccache et al, Fonteriz et al, Nakao et al; cited from earlier work
human GPR43 [9] = molecular target: T1, human GPR43; details: library at 1-100 μM; confirmed by a dose response curve
Procedure: as §1

[10] = system: other GPCRs, such as motilin or histamine H1 receptor; details: Gqi only or cDNAs for other GPCRs; data not shown
[11] = CHO-K1 cells stably expressing human GPR43, FIG. 4

Compound | activity on human GPR43 (human GPR43 [1]) | activity on GTPγ[35S] binding (human GPR43 [2]) | order of agonist potency (human GPR43 [2]) | also measured
O=C(O)C(=O)O [oxalate] | abolished the signal | Inactive | – | –
O=C(O)CC(O)(CC(=O)O)C(=O)O [citrate] | abolished the signal | Inactive | – | –
CCCC(=O)O [butyrate] | – | – | – | decrease of forskolin-stimulated adenylate cyclase activity (human GPR43 [3]; [11]): 75%
CCC(=O)O [propionate] | – | – | acetate=propionate>n-butyrate=isobutyrate=n-valerate=caproate>>formate>>pyruvate=acetoacetate | PTX sensitivity of the accumulation of total inositol phosphates (human GPR43 [4]): non PTX sensitive; stimulation of GTPγ[35S] binding in membranes with non related receptors ([5]; adenosine A1, adrenergic 2C, CRF 1, CCR3, LTB4, M4, neuropeptide FF 2S, opioid 3, 5-HT1A, sst5 receptors): not able to stimulate any binding; decrease of forskolin-stimulated adenylate cyclase activity (human GPR43 [3]; [11]): 75%; rank order of potency to inhibit forskolin-stimulated adenylate cyclase (human GPR43 [3]; SCFA from 1 carbon to 4 carbon, FIG. 4): C2 (acetate)≧C3 (propionate)>C4 (butyrate)>>C1 (formate); shape of chemotactic dose-response [6]: classical bell-shaped dose-response curve; effect of increasing concentration on intracellular calcium [7]: concentration-dependent increase of intracellular calcium; EC50 ([7]; Leukocyte): 540 µM; EC50 for cytoplasmic calcium mobilization in PMN [8]: millimolar
CC(O)CC(=O)O (racemic) [DL-β-hydroxybutyrate] | is not active | Inactive | – | –
CC(=O)O [acetate] | – | – | acetate=propionate>n-butyrate=isobutyrate=n-valerate=caproate>>formate>>pyruvate=acetoacetate | result of ligand screening (human GPR43 [9]): specific activity; PTX sensitivity of the accumulation of total inositol phosphates (human GPR43 [4]): non PTX sensitive; stimulation of GTPγ[35S] binding in membranes with non related receptors [5]: not able to stimulate any binding; decrease of forskolin-stimulated adenylate cyclase activity (human GPR43 [3]): 75%; rank order of potency to inhibit forskolin-stimulated adenylate cyclase (human GPR43 [3]): C2 (acetate)≧C3 (propionate)>C4 (butyrate)>>C1 (formate); observed effect on adenylate cyclase after overnight preincubation with Pertussis Toxin (PTX) (human GPR43 [3]; FIG. 5): totally abolished; shape of chemotactic dose-response [6]: classical bell-shaped dose-response curve; effect of increasing concentration on intracellular calcium [7]: concentration-dependent increase of intracellular calcium; EC50 [7]: 537 µM; activation of control cells (inositol phosphates) [10]: not activated; activation of GTPγ[35S] binding, sodium versus ammonium salt (human GPR43 [2]; assay buffer containing 120 mM sodium or potassium, FIG. 7): equipotent; potency on accumulation of GTPγ[35S] binding (human GPR43 [2]; compared with the cell-based cAMP assay, FIG. 6): comparable to that observed in the cell-based functional assay monitoring cAMP levels; EC50 for cytoplasmic calcium mobilization in PMN [8]: millimolar
CCCCC(=O)O [n-valerate] | – | – | acetate=propionate>n-butyrate=isobutyrate=n-valerate=caproate>>formate>>pyruvate=acetoacetate | –
CC(=O)CC(=O)O [acetoacetate] | decreased but consistent activity | – | acetate=propionate>n-butyrate=isobutyrate=n-valerate=caproate>>formate>>pyruvate=acetoacetate | –
N[C@@H](CO)C(=O)O [serine] | abolished the activity | – | – | –
CCO [ethanol] | – | Inactive | – | –
O=C(O)CC(=O)O [malonate] | abolished the signal | Inactive | – | –
CC=O [acetaldehyde] | – | Inactive | – | –
CCCCCC(=O)[O-].CCCCCC(=O)[O-].[Ca+2] [caproate] | – | – | acetate=propionate>n-butyrate=isobutyrate=n-valerate=caproate>>formate>>pyruvate=acetoacetate | –
NCC(=O)O [glycine] | decreased activity without abolishing it | – | – | –
O=CO [formate] | – | – | acetate=propionate>n-butyrate=isobutyrate=n-valerate=caproate>>formate>>pyruvate=acetoacetate | decrease of forskolin-stimulated adenylate cyclase activity (human GPR43 [3]): 75%; rank order of potency to inhibit forskolin-stimulated adenylate cyclase (human GPR43 [3]): C2 (acetate)≧C3 (propionate)>C4 (butyrate)>>C1 (formate); activation of the human receptor (maximal response compared to acetate and propionate) (human GPR43 [2]; data not shown): partly activate
N[C@@H](CCC(=O)O)C(=O)O [L-glutamate] | abolished the signal | Inactive | – | –
O=C(O)CCC(=O)O [succinate] | abolished the signal | Inactive | – | –
f-met-leu-phe [fMLP] | – | – | – | maximal chemotactic index relative to SCFA ([6]; on average, data not shown): at least 3 fold
NCCCC(=O)O [GABA] | – | Inactive | – | –
CC(C)=O [acetone] | – | Inactive | – | –
CC(C)C(=O)O [isobutyrate] | – | – | acetate=propionate>n-butyrate=isobutyrate=n-valerate=caproate>>formate>>pyruvate=acetoacetate | –
